From PubChem BioAssay AID1329 (NMMLSC, 2008)
Active and inactive are the calls of the source. How the calls were made is not given here.

target: Induced myeloid leukemia cell differentiation protein Mcl-1 (Homo sapiens) (UniProt Q07820); test: modulators of Bim peptide binding to Mcl-1, dose response, biochemical, bead-based flow cytometry, multiplexed, human (AID 1329); settings: Bim peptide-Mcl-1 binding, MCF
Sequence (Q07820 whole entry, looked up): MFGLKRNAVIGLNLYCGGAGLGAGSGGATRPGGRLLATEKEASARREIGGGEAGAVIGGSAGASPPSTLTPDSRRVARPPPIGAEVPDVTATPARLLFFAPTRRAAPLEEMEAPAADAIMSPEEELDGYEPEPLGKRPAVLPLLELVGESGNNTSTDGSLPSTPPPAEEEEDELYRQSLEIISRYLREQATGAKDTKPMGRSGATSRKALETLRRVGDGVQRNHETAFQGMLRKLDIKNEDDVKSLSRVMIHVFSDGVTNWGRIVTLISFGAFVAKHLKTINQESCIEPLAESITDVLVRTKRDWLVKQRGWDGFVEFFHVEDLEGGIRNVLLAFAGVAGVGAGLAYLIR

| Compound | percent span |
| --- | --- |
| Cc1ccc(O)c(NC2=C(Cl)C(=O)N(Cc3ccccc3)C2=O)c1 | inactive |
| CCCCc1ccc(NC(=S)NCc2ccc(OC)cc2)cc1 | inactive |
| COc1cc2c(cc1OC)C(c1ccccc1F)OC(=O)C2 (centres undefined) | inactive |
| Cc1ccccc1-n1c(SCc2cccc(F)c2)nc2[nH]ncc2c1=O | inactive |
| COc1cc(/C=N/NC(=O)c2ccc([N+](=O)[O-])cc2Cl)cc(Br)c1O | inactive |
| Cc1ccc(S(=O)(=O)N2CCCCC2)cc1NC(=O)COC(=O)c1ccccc1F | inactive |
| Cn1c(=O)[nH]c(=O)c2c1nc(N1CCOCC1)n2CCSc1nc2ccccc2[nH]1 | inactive |
| O=C(Nc1nnc(COc2ccc(Cl)cc2)s1)c1ccco1 | inactive |
| Cn1c(=O)c(C(=O)COC(=O)c2cc(-c3ccco3)nc3ccccc23)c(N)n(Cc2ccccc2)c1=O | inactive |
| CCC(=O)N(CC)C1=C(O)c2ccccc2C(=O)C1=O | inactive |
| Clc1ccc2c(N/N=C/c3ccc(Br)cc3)ccnc2c1 | inactive |
| O=C(OCc1cnc(Cl)s1)c1cccc(Cl)c1Cl | inactive |
| COc1cccc(NC(=O)CSc2nncn2N)c1 | inactive |
| CCN1CCN(c2cc(C)c3cc(NC(=S)N4CCN(c5ccc(F)cc5)CC4)ccc3n2)CC1 | inactive |
| Cc1ccc(-c2cc(C(=O)OCC(=O)N(C)C3CCS(=O)(=O)C3)c3ccccc3n2)o1 (centres undefined) | inactive |
| c1coc(C2=Nc3cccc4cccc(c34)N2)c1 | inactive |
| O=C1/C(=C/c2cccs2)Sc2ccccc21 | inactive |
| O=C(O)C1=C[C@H](C2CC2)C[C@H](OCCCCO)O1 | inactive |
| CN=C(NC1CCCCC1)c1ccc(Cl)cc1 | inactive |
| O=C1CCc2cc(S(=O)(=O)NCCCC(=O)N3CCN(Cc4ccc5c(c4)OCO5)CC3)ccc2N1 | inactive |
| Cc1cc(NC(=O)CSc2nnc(-c3cccnc3)n2Cc2ccccc2)no1 | inactive |
| S=c1[nH]cc(-c2ccccc2)n1-c1ccccc1 | inactive |
| Cn1c(CNc2nc(-c3ccccc3)cs2)nnc1SCC(=O)N1CCc2ccccc21 | inactive |
| Cc1ccc2c(c1)C1CN(C)CCC1N2C(=O)Nc1cccc(Cl)c1 (centres undefined) | inactive |
| Cc1cc(C)c[n+](-c2nc3ccccc3nc2C(=C=[N-])C#N)c1 | inactive |
| Cc1cccc(C(=O)N2CCC(c3nc(-c4ccc(S(=O)(=O)N5CCOCC5)cc4)no3)CC2)c1 | inactive |

| Compound | percent span |
| --- | --- |
| CN1CCN(c2ccc(N)cc2)CC1 | inactive |
| CCN(CC)c1ccc(-c2nn3c(-c4ccccc4OC)nnc3s2)cc1 | inactive |
| C=CCn1c(SCC(=O)Nc2ccc3c(c2)OCO3)nnc1-c1cc(Br)ccc1O | inactive |
| CCOC(=O)c1c(NC(=O)c2ccccc2N(C)S(=O)(=O)c2ccccc2)sc2c1CCCC2 | inactive |
| CN(CCCOc1ccccc1Br)Cc1ccccc1 | inactive |
| Cc1ccc2cc(C)c(Sc3nnnn3-c3ccccc3)nc2c1 | inactive |
| Cc1cc(C)c(C)c(S(=O)(=O)N2CCN(CC(=O)NC(=O)NCc3ccccc3)CC2)c1C | inactive |
| Cc1nnc(Sc2cc(NCCO)c([N+](=O)[O-])c3nonc23)s1 | inactive |
| COc1ccccc1Oc1ccc2c(c1)C(=O)N(c1ccccc1)C2=O | inactive |
| CN(CCO)c1cc(Sc2nc3ccccc3s2)c2nonc2c1[N+](=O)[O-] | inactive |
| S=C1NC2=C(CCC/C2=C\c2ccccc2)C(c2ccccc2)N1 (centres undefined) | inactive |
| Cc1ccc(NC(=O)CSc2nc3ccccc3c(=O)n2CCCN2CCCCC2)cc1Cl | inactive |
| CC(C)C(=O)N1CCN(c2ccc([N+](=O)[O-])cc2Cl)CC1 | inactive |
| COc1cc(N2CCOCC2)ccc1C=C1C(=O)NC(=O)NC1=O | inactive |
| O=C1CSc2ccc(C(=O)Nc3cccc(S(=O)(=O)Nc4ccc(Br)cc4)c3)cc2N1 | inactive |
| CCOC(=O)c1snc(-c2ccc(F)cc2)c1N | inactive |
| Cc1csc(SCCn2c(N3CCN(c4ccccc4)CC3)nc3c2c(=O)[nH]c(=O)n3C)n1 | inactive |
| Cc1cc(C)c(S(=O)(=O)/N=C2/C=C(SCC(=O)O)C(=O)c3ccccc32)cc1C | inactive |
| O=C(Nc1cccc(-c2ccc3nncn3n2)c1)c1ccco1 | inactive |
| CCOc1cc(CNc2ccc(N3CCCCC3)cc2)cc(Br)c1OCC(=O)NC(C)(C)C | inactive |
| COc1ccc(NC(=O)Cc2c(F)cccc2Cl)c(OC)c1 | inactive |
| CC(=O)NC(=O)Nc1sc(=S)n(C)c1C | inactive |
| CCOC(=O)CSC1=NC(=O)/C(=C\c2ccc(OC(C)=O)cc2)S1 | inactive |
| O=C(c1ccccc1NS(=O)(=O)c1ccc(Br)s1)N1CCCC1 | inactive |
| COc1ccc(NC(=O)/C(C#N)=C/c2c(C)nn(-c3ccc(F)cc3)c2Cl)cc1Cl | inactive |
| COC(=O)c1sc(NC(=O)c2ccc(Cn3cc(Cl)cn3)o2)c(C#N)c1C | inactive |

| Compound | percent span |
| --- | --- |
| CCCCCCn1nc(C(=O)Nc2nc3c(s2)CCCC3)c2ccccc2c1=O | inactive |
| Cc1cc(N2CCN(C)CC2)nc2ccc(NC(=S)N3CCN(c4cccc(Cl)c4)CC3)cc12 | inactive |
| COc1c(C)cc(Br)cc1C(=O)Nc1ccc(S(N)(=O)=O)cc1 | inactive |
| O=C(Nc1nnc(C2CC2)s1)C1Cc2ccccc2CN1S(=O)(=O)c1ccccc1F (centres undefined) | inactive |
| Cc1ccccc1OCC(=O)N/N=C/c1ccccn1 | inactive |
| OC(COc1ccc2cc(Br)ccc2c1)CN1CCOCC1 (centres undefined) | inactive |
| Cc1cc(-c2csc(N)n2)c(C)n1C | inactive |
| COc1ccc(NC(=O)c2ccc3c(c2)NC(=O)CS3)cc1S(=O)(=O)Nc1ccc(Br)cc1 | inactive |
| COc1cc2[nH]c(=S)nc(NCCCOC(C)C)c2cc1OC | inactive |
| COCc1cc(CN2CCCC(CNC(=O)c3ccc(F)cc3)C2)ccc1OC (centres undefined) | inactive |
| O=C1NCCN1C(=O)N(c1ccccc1)c1ccccc1 | inactive |
| CN(C)c1cccc(NC(=O)C2(C)CC2(Cl)Cl)c1 (centres undefined) | inactive |
| Cc1ccc(-c2cc(-c3ccccc3Cl)c(C#N)c(N)n2)o1 | inactive |
| COc1ccc(CCNC(=O)c2ccc3nc(-c4ccco4)c(-c4ccco4)nc3c2)cc1OC | inactive |
| CCOC(=O)c1sc(N)c(C(=O)Nc2ccccc2OC)c1C | inactive |
| COc1ccccc1C1=Nc2cccc3cccc(c23)N1 | inactive |
| COc1ccc(NC(=O)COc2ncnc3ccccc23)cc1S(=O)(=O)N1CCOCC1 | inactive |
| CC1N(C)c2cccc3cccc(c23)N1C | inactive |
| Cc1cc(OCc2cn3cccnc3n2)ccc1Cl | inactive |
| Cn1c(N)c(C(=O)COC(=O)c2cncc(Br)c2)c(=O)n(C)c1=O | inactive |
| O=C(/C=C/c1ccc(-c2ccccc2[N+](=O)[O-])o1)c1ccc(F)cc1 | inactive |
| C=CS(=O)c1sc(Cl)c(N2CCOCC2)c1[N+](=O)[O-] (centres undefined) | inactive |
| CSc1nnc2ccc(-c3cccs3)nn12 | inactive |
| CCOc1ccc(-n2cc(-c3ccc(OC)c(OC)c3)[nH]c2=S)cc1 | inactive |
| S=C(NCCc1ccccc1)NCCc1ccccc1 | inactive |
| COc1ccc2c3c(cccc13)N(C)N=C2C | inactive |

| Compound | percent span |
| --- | --- |
| Cc1onc(-c2ccccc2)c1C(=O)Nc1nnc(COc2ccc(Cl)cc2)s1 | inactive |
| Cc1ccc(-c2nnc(Cc3ccc(Cl)cc3)o2)cc1 | inactive |
| O=C(COC(=O)CCCN=C1NS(=O)(=O)c2ccccc21)NC(=O)NC1CCCC1 | inactive |
| CC(C)c1ccc(C2CC(c3ccc(Br)cc3)=NN2C(N)=S)cc1 (centres undefined) | inactive |
| O=C(OCc1nc2ccccc2[nH]1)C12CC3CC(CC(C3)C1)C2 | inactive |
| O=C1C(=O)c2ccc(-c3ccccc3)cc2-c2ccccc21 | inactive |
| CCOc1cc(NC(=S)NC)c(OCC)cc1NC(=O)c1ccc(OC)cc1 | inactive |
| Cc1c(N2C(=O)c3ccc4c5c(ccc(c35)C2=O)CC4)c(=O)n(-c2ccccc2)n1C | inactive |
| CN(Cc1ccccc1)c1nc2c(c(=O)[nH]c(=O)n2C)n1C | inactive |
| CCNC(=S)Nc1cc(OCC)c(NC(=O)c2cccs2)cc1OCC | inactive |
| O=C(CNC(=O)c1ccc(S(=O)(=O)N2CCCC2)cc1)N/N=C/c1ccc(Cl)cc1Cl | inactive |
| CSc1nnc2c3cc(C)ccc3n(Cc3ccccc3)c2n1 | inactive |
| CCOC(=O)CSC1=NC(=O)/C(=C/c2ccc(Br)cc2)S1 | inactive |
| CC(C)NS(=O)(=O)c1ccc(OCC(=O)Nc2ccc(F)cc2)cc1 | inactive |
| Cc1ccc2c(c1)c(C)c(C)n2CC(O)Cn1nc(C)c(Br)c1C (centres undefined) | inactive |
| OCCC1CN(Cc2ccc3ncccc3c2)CCN1Cc1ccccc1 (centres undefined) | inactive |
| COC(=O)Cc1ccc(NC(=S)N2CCN(c3cccc(O)c3)CC2)cc1 | inactive |
| O=C1NC(=S)S/C1=C/c1ccc(N2CCOCC2)o1 | inactive |
| CSc1ccccc1NC(=O)CN(C)CC(=O)Nc1ccc(N2CCOCC2)cc1 | inactive |
| CCOC(=O)c1cc2c(=O)n3ccccc3nc2n(Cc2ccco2)c1=NC(=O)c1ccccc1OC | inactive |
| Cc1ccc(-c2n[nH]c(=S)n2-c2ccccc2)cc1 | inactive |
| COc1ccc(S(=O)(=O)NCCSc2ccccc2)cc1OC | inactive |
| O=C(N/N=C/c1cccnc1)c1cccc(S(=O)(=O)N2CCCC2)c1 | inactive |
| CCC(=O)OCCNc1cc(Sc2nccn2C)c2nonc2c1[N+](=O)[O-] | inactive |
| Cc1ccccc1/C=N/Nc1ccnc2cc(Cl)ccc12 | inactive |
| CC1=CC(=O)c2ccccc2C1=O | inactive |
